What was measured:
[1] = tested on: antibody-forming cells (AFC) in the spleen; test: Humoral immune response: counting antibody-forming cells (AFC) in the spleen according to Cunningham, mice immunised with sheep erythrocytes; assay type: in vivo, C57B1/6 mice; conditions: for Amount of antibody-forming cells per 10^6 spleen cells, M ± SEM (relative amount of AFC) / Amount of antibody-forming cells per spleen, M ± SEM (total AFC amount): 5-th day after injection, female mice; for Effect, % on AFC per 10^6 spleen cells / Effect, % on AFC per spleen: versus animals immunised only with sheep erythrocytes; for Dose at which immunostimulating effect in vivo is displayed (micelle form): compound alone
Method: (§1) 0.15 ml of compound 10 was administered intravenously to 6 mice females of CS7B1/6 line (weight 18-22 g) in doses of 45.5, 91 and 136.5 μg of compound 10 per capita for each testing group according to the dose. Simultaneously, a suspension of 5·10^7 sheep erythrocytes was injected intraperitoneally (0.2 ml per capita). Mice in the control group were injected intravenously with equal volume of saline. The effects of compound 10 on humoral immune response were analyzed both by counting the quantity of AFC in the spleen according to Cunningham (per 10^6 spleen cells and per spleen) and estimating the titers of hemagglutining antibodies in serum of the animals (Cunningham A. J., Nature, 1965, Vol.207, No 5001. P.1106-1107), while the titers of hemagglutinating antibodies were evaluated according to litterature (Evans J. et al., Cell, 1974; Vol 3., p.153-158, Feizi T., Menger E., Transfusion, 1970, Vol. 10, p.33-35,).
(§2) 0.15 ml of compound 11 was administered intravenously to 6 female mice of the C57B1/6 line (weight 18-22 g) in doses of 45.5, 91 and 136.5 μg of compound 11 per capita for each testing group according to the dose. Simultaneously, a suspension of 5·10^7 sheep erytrocytes was injected intraperitoneally (0.2 ml per capita). Mice in the control group were injected intravenously with an equal volume of saline. The effects of compound 11 on humoral immune response was analysed both by counting the quantity of AFC in the spleen according to Cunningham (per 10^6 spleen cells and per spleen) and estimating the titers of hemagglutining antibodies in serum of the animals.
as §2, with “12” for “11”, “erythrocytes” for “erytrocytes”, “analyzed” for “analysed”
as §2, with “compound 8” for “compound 11”, “sheep erythrocytes” for “sheep erytrocytes”, “Mice of” for “Mice in”, “response were analyzed” for “response was analysed”
as §2, with “compound 3” for “compound 11”, “Mice of” for “Mice in”, “with” for “with an”, “response were” for “response was”
(§3) 0.15 ml of compound 4 was administered intravenously to 6 female mice of the C57B1/6 line (weight 18-22 g) in a doses of 45.5, 91 and 136.5 μg of compound 4 per capita for each testing group according to the dose. Simultaneously, a suspension of 5·10^7 sheep erythrocytes was injected intraperitoneally (0.2 ml per capita). […]

[2] = tested on: hemagglutinating antibodies in serum; test: Humoral immune response: titers of hemagglutinating antibodies in serum; assay type: in vivo, C57B1/6 mice; conditions: for Amount of hemagglutinins: serum, female mice; for Effect, % on hemagglutinins: versus control
Method: as §1, §2
as §2, with “12” for “11”, “erythrocytes” for “erytrocytes”, “analyzed” for “analysed”
as §2, with “compound 8” for “compound 11”, “sheep erythrocytes” for “sheep erytrocytes”, “Mice of” for “Mice in”, “response were analyzed” for “response was analysed”
as §2, with “compound 3” for “compound 11”, “Mice of” for “Mice in”, “with” for “with an”, “response were” for “response was”
as §3

[3] = tested on: antibody-forming cells (AFC) in the spleen; test: Influence of compound on humoral immune response to sheep erythrocytes, C57B1/6 female mice (AFC in spleen, hemagglutinins); assay type: in vivo; conditions: for Amount of antibody-forming cells per 10^6 spleen cells / Amount of antibody-forming cells per spleen / Effect on relative amount of AFC (per 10^6 spleen cells) / Effect on total AFC amount (per spleen): 5th day; for Amount of antibody-forming cells per 10^6 spleen cells / Amount of antibody-forming cells per spleen: M ± SEM; for Effect on relative amount of AFC (per 10^6 spleen cells) / Effect on total AFC amount (per spleen) / Effect on hemagglutinin titers: vs control; for Spleen index: with SRBC i.p.; for Immunogenic activity: 45.5 and 91 μg/mouse
Method: The increase was calculated as compared with the amount of cells in the animals immunised only with sheep erythrocytes.
as §1, §2
as §2, with “12” for “11”, “erythrocytes” for “erytrocytes”, “analyzed” for “analysed”
as §2, with “compound 8” for “compound 11”, “sheep erythrocytes” for “sheep erytrocytes”, “Mice of” for “Mice in”, “response were analyzed” for “response was analysed”
0.15 ml of compound 3 was administered intravenously to 6 female mice of the C57B1/6 line (weight 18-22 g) in doses of 45.5, 91 and 136.5 μg of compound 3 per capita for each testing group according to the dose. Simultaneously, a suspension of 5·10^7 sheep erytrocytes was injected intraperitoneally (0.2 ml per capita). Mice of the control group were injected intravenously with equal volume of saline.

## CC/C=C\C/C=C\C/C=C\CCCCCCCC(=O)N[C@@H](Cc1ccc(OP(=O)(O)O)cc1)C(=O)O [Compound 20, N-linolenoyl-o-phospho-L-tyrosine]
[1]; 45.5 μg/mouse i.v.
  Amount of antibody-forming cells per 10^6 spleen cells, M ± SEM (relative amount of AFC): 512.8±46.2
  Amount of antibody-forming cells per spleen, M ± SEM (total AFC amount): 46.4±4.8 × 10^3
  Effect, % on AFC per 10^6 spleen cells: −9.8 p > 0.05%
  Effect, % on AFC per spleen: −7.4 p > 0.05%
[1]; 91 μg/mouse i.v.
  Amount of antibody-forming cells per 10^6 spleen cells, M ± SEM (relative amount of AFC): 634.5±51.7
  Amount of antibody-forming cells per spleen, M ± SEM (total AFC amount): 55.7±5.6 × 10^3
  Effect, % on AFC per 10^6 spleen cells: +11.6 p > 0.05%
  Effect, % on AFC per spleen: +11.2 p > 0.05%
[1]; 136.5 μg/mouse i.v.
  Amount of antibody-forming cells per 10^6 spleen cells, M ± SEM (relative amount of AFC): 845.1±43.1
  Amount of antibody-forming cells per spleen, M ± SEM (total AFC amount): 75.8±7.7 × 10^3
[1]; dose of 136.5 μg/mouse
  immunostimulating action: marked immunostimulating action
[1]; doses of 45.5 and 91 μg/mouse
  Immunogenic activity: no immunogenic activity
[2]; 45.5 μg/mouse i.v.
  Amount of hemagglutinins: 7.4 ± 0.2 Log2 T
[2]; 91 μg/mouse i.v.
  Amount of hemagglutinins: 7.5 ± 0.3 Log2 T
  Effect, % on hemagglutinins: +1.4 p > 0.05%
[2]; 136.5 μg/mouse i.v.
  Amount of hemagglutinins: 7.6 ± 0.4 Log2 T
  Effect, % on hemagglutinins: +2.7 p > 0.05%

## CC1=C(/C=C/C(C)=C/C=C/C(C)=C/C(=O)N[C@@H](Cc2ccc(OP(=O)(O)O)cc2)C(=O)O)C(C)(C)CCC1 (stereo in doubt) [Compound 4, N-(all-trans-retinoyl)-o-phospho-L-tyrosine]
[1]; 45.5 μg/mouse i.v.
  Amount of antibody-forming cells per 10^6 spleen cells, M ± SEM (relative amount of AFC): 405.0±47.9
  Amount of antibody-forming cells per spleen, M ± SEM (total AFC amount): 55.0±6.7 × 10^3
  Effect, % on AFC per 10^6 spleen cells: −0.3 p >0.05%
  Effect, % on AFC per spleen: −8.9 p > 0.05%
[1]; 91 μg/mouse i.v.
  Amount of antibody-forming cells per 10^6 spleen cells, M ± SEM (relative amount of AFC): 692.9±44.8
  Amount of antibody-forming cells per spleen, M ± SEM (total AFC amount): 87.6±4.3 × 10^3
[1]; 136.5 μg/mouse i.v.
  Amount of antibody-forming cells per 10^6 spleen cells, M ± SEM (relative amount of AFC): 1354.3±99.9
  Amount of antibody-forming cells per spleen, M ± SEM (total AFC amount): 138.9±10.0 × 10^3
[1]
  Dose at which immunostimulating effect in vivo is displayed (micelle form): 91 μg/mouse
[1]; dose of 45.5 μg/mouse
  Immunogenic activity: no immunogenic activity
[1]; doses of 91 and 136.5 μg/mouse
  immunostimulating action: high immunostimulating action
[2]; 45.5 μg/mouse i.v.
  Amount of hemagglutinins: 6.0 ± 0.3 Log2 T
  Effect, % on hemagglutinins: −3.2 p > 0.05%
[2]; 91 μg/mouse i.v.
  Amount of hemagglutinins: 6.5 ± 0.4 Log2 T
  Effect, % on hemagglutinins: +4.8 p > 0.05%
[2]; 136.5 μg/mouse i.v.
  Amount of hemagglutinins: 7.5±0.2 Log2 T

## CC/C=C\C/C=C\C/C=C\CCCCCCCC(=O)N[C@H](C(=O)O)[C@@H](C)OP(=O)(O)O [Compound 19, N-linolenoyl-o-phospho-L-threonine]
[2]; 45.5 μg/mouse i.v.
  Amount of hemagglutinins: 8.1 ± 0.3 Log2 T
[2]; 91 μg/mouse i.v.
  Amount of hemagglutinins: 8.3 ± 0.4 Log2 T
[2]; 136.5 μg/mouse i.v.
  Amount of hemagglutinins: 8.5 ± 0.3 Log2 T

## CC/C=C\C/C=C\C/C=C\C/C=C\C/C=C\CCCC(=O)NCCOP(=O)(O)O [Compound 13, N-eicosapentaenoyl-o-phospho-2-aminoethanol]
[2]; 45.5 μg/mouse i.v.
  Amount of hemagglutinins: 9.7 ± 1.2 Log2 T
[2]; 91 μg/mouse i.v.
  Amount of hemagglutinins: 9.5 ± 1.2 Log2 T
[2]; 136.5 μg/mouse i.v.
  Amount of hemagglutinins: 10.3 ± 0.9 Log2 T

## CC/C=C\C/C=C\C/C=C\CCCCCCCC(=O)N[C@H](C(=O)O)[C@@H](C)OP(=O)(O)O [Compound 19, N-(cis-9,12,15-octadecatrienoyl)-O-phospho-L-threonine]
[3]; 45.5 μg/mouse, i.v.
  Amount of antibody-forming cells per 10^6 spleen cells: 454.7±57.9 cells per 10^6 spleen cells
  Amount of antibody-forming cells per spleen: 48.8±6.4 × 10^3
  Effect on relative amount of AFC (per 10^6 spleen cells): +4.3 p > 0.05%
  Effect on total AFC amount (per spleen): +5.4 p > 0.05%
  Effect on hemagglutinin titers: +1,3 p > 005%
  Spleen index: 6.2 ± 10^−3
[3]; 91 μg/mouse, i.v.
  Amount of antibody-forming cells per 10^6 spleen cells: 473.2±44.5 cells per 10^6 spleen cells
  Amount of antibody-forming cells per spleen: 51.2±6.1 × 10^3
  Effect on relative amount of AFC (per 10^6 spleen cells): +8.6 p > 0.05%
  Effect on total AFC amount (per spleen): +10.6 p > 0.05%
  Effect on hemagglutinin titers: +3.8 p > 0.05%
  Spleen index: 6.4 ± 10^−3
[3]; 136.5 μg/mouse
  immunostimulating action: marked immunostimulating action
[3]; 136.5 μg/mouse, i.v.
  Amount of antibody-forming cells per 10^6 spleen cells: 612.5±47.3 cells per 10^6 spleen cells
  Amount of antibody-forming cells per spleen: 64.7±4.9 × 10^3
  Effect on hemagglutinin titers: +6.3 p > 0.05%
  Spleen index: 6.5 ± 10^−3
[3]
  Immunogenic activity: no immunogenic activity

## CC1=C(/C=C/C(C)=C/C=C/C(C)=C\C(=O)NCCOP(=O)(O)O)C(C)(C)CCC1 [Compound 1a, N-(13-cis-retinoyl)-o-phospho-2-aminoethanol]
[1]
  Dose at which immunostimulating effect in vivo is displayed (micelle form): 91 μg/mouse
[2]; 45.5 μg/mouse i.v.
  Amount of hemagglutinins: 7.6 ± 0.3 Log2 T
  Effect, % on hemagglutinins: −1,3 p > 0.05%
[2]; 91 μg/mouse i.v.
  Amount of hemagglutinins: 7.6 ± 0.2 Log2 T
  Effect, % on hemagglutinins: −1,3 p > 0.05%
[2]; 136.5 μg/mouse i.v.
  Amount of hemagglutinins: 8.2 ± 0.4 Log2 T
  Effect, % on hemagglutinins: +6,5 p > 0.05%

## CC/C=C\C/C=C\C/C=C\C/C=C\C/C=C\C/C=C\CCC(=O)N[C@H](C(=O)O)[C@@H](C)OP(=O)(O)O [Compound 11, N-docosahexaenoyl-o-phospho-L-threonine]
[2]; 45.5 μg/mouse i.v.
  Amount of hemagglutinins: 8.3 ± 0.3 Log2 T
[2]; 91 μg/mouse i.v.
  Amount of hemagglutinins: 8.0 ± 0.5 Log2 T
[2]; 136.5 μg/mouse i.v.
  Amount of hemagglutinins: 9.3 ± 0.2 Log2 T

## CC/C=C\C/C=C\C/C=C\C/C=C\C/C=C\C/C=C\CCC(=O)N[C@H](C(=O)O)[C@@H](C)OP(=O)(O)O [Compound 11, N-(cis-4,7,10,13,16,19-docosahexaenoyl)-O-phospho-L-threonine]
[3]; 45.5 μg/mouse, i.v.
  Amount of antibody-forming cells per 10^6 spleen cells: 676.8±77.1 cells per 10^6 spleen cells
  Amount of antibody-forming cells per spleen: 85.9±8.3 × 10^3
  Effect on relative amount of AFC (per 10^6 spleen cells): −15.3 p > 0.05%
  Effect on total AFC amount (per spleen): −15.0 p > 0.05%
  Effect on hemagglutinin titers: 0%
  Spleen index: 6.2 ± 0.2 10^−3
[3]; 91 μg/mouse, i.v.
  Amount of antibody-forming cells per 10^6 spleen cells: 896.8±111.8 cells per 10^6 spleen cells
  Amount of antibody-forming cells per spleen: 111.2±11.8 × 10^3
  Effect on relative amount of AFC (per 10^6 spleen cells): +12.2 p > 0.05%
  Effect on total AFC amount (per spleen): +10.0 p > 0.05%
  Effect on hemagglutinin titers: −3.6 p > 0.05%
  Spleen index: 6.9 ± 0.5 10^−3
[3]; 136.5 μg/mouse
  immunostimulating action: marked immunostimulating action
[3]; 136.5 μg/mouse, i.v.
  Amount of antibody-forming cells per 10^6 spleen cells: 1336.5±59.0 cells per 10^6 spleen cells
  Amount of antibody-forming cells per spleen: 182.5±7.8 × 10^3
  Spleen index: 7.5 ± 0.4 10^−3
[3]; 136.5 μg/mouse, i.v., serum
  Amount of hemagglutinins: 9.3±0.2 Log2 T
[3]
  Immunogenic activity: no immunogenic activity
